Tested on: H1 human embryonic stem cells
Assay: Secondary assay: compound combined with individual growth factors or small molecules, no activin A (Example 5, Table 4);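 as to Cell Number, Average Total Cell Number: Four-day assay with feeding on alternate days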;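 as to Sox17 Expression, Average Total Intensity: Four-day assay with feeding on alternate days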
Assay type: cell-based
[1] = no AA (with Wnt3a), EGF + FGF4 + PDGF-A + Muscimol
[2] = no AA (with Wnt3a), EGF + FGF4 + PDGF-A + VEGF
[3] = no AA (with Wnt3a), EGF + FGF4 + PDGF-AB
[4] = no AA (with Wnt3a), EGF + FGF4 + PDGF-AB + Muscimol
[5] = no AA (with Wnt3a), EGF + PDGF-A + VEGF
[6] = no AA (with Wnt3a), FGF4 + PDGF-A + VEGF
[7] = no AA (with Wnt3a), bicuculline

**Q.** Which results are given for `O=C1NCCCc2cncc(c2)-c2ncnc(n2)Nc2cccc(c2)CN2CCCC1C2` (centres unmarked) [Compound 17, 3,5,7,14,20,26,31-Heptaazapentacyclo[22.3.1.1-2,6˜1˜8,12˜1˜14,18˜]hentriaconta-1(28), 2(31), 3,5,8(30), 9,11,24,26-nonaen-19-one]?
**A.** Cell Number, % of positive control (no AA (with Wnt3a), EGF): 73.43%; Cell Number, Average Total Cell Number (no AA (with Wnt3a), EGF): 6942; Sox17 Expression, % of positive control (no AA (with Wnt3a), EGF): 0.74%; Sox17 Expression, Average Total Intensity (no AA (with Wnt3a), EGF): 1.27E+06; Cell Number, % of positive control (no AA (with Wnt3a), EGF + FGF4): 60.69%; Cell Number, Average Total Cell Number (no AA (with Wnt3a), EGF + FGF4): 5738; Sox17 Expression, % of positive control (no AA (with Wnt3a), EGF + FGF4): 1.83%; Sox17 Expression, Average Total Intensity (no AA (with Wnt3a), EGF + FGF4): 3.14E+06; Cell Number, % of positive control [1]: 144.37%; Cell Number, Average Total Cell Number [1]: 13649; Sox17 Expression, % of positive control [1]: 8.43%; Sox17 Expression, Average Total Intensity [1]: 1.45E+07; Cell Number, % of positive control [2]: 110.85%; Cell Number, Average Total Cell Number [2]: 10480; Sox17 Expression, % of positive control [2]: 5.23%; Sox17 Expression, Average Total Intensity [2]: 8.97E+06; Cell Number, % of positive control [3]: 47.10%; Cell Number, Average Total Cell Number [3]: 4453; Sox17 Expression, % of positive control [3]: 0.54%; Sox17 Expression, Average Total Intensity [3]: 9.30E+05; Cell Number, % of positive control [4]: 109.91%; Cell Number, Average Total Cell Number [4]: 10391; Sox17 Expression, % of positive control [4]: 5.20%; Sox17 Expression, Average Total Intensity [4]: 8.92E+06; Cell Number, % of positive control [5]: 60.59%; Cell Number, Average Total Cell Number [5]: 5728; Sox17 Expression, % of positive control [5]: 1.24%; Sox17 Expression, Average Total Intensity [5]: 2.14E+06; Cell Number, % of positive control [6]: 139.59%; Cell Number, Average Total Cell Number [6]: 13198; Sox17 Expression, % of positive control [6]: 7.54%; Sox17 Expression, Average Total Intensity [6]: 1.29E+07

**Q.** Which results are given for `CCN1CC(=O)NCCCc2cncc(c2)-c2ncnc(n2)Nc2cc(Cl)cc(c2)C1` [Compound 35, 10-Chloro-14-ethyl-3,5,7,14,17,23,27-heptaazatetracyclo[19.3.1.1˜2,6˜0.1˜8,12]Theptacosa-1(25), 2(27), 3,5,8(26), 9,11,21,23-nonaen-16-one]?
**A.** Cell Number, % of positive control (no AA (with Wnt3a), BMP1): 210.81%; Cell Number, Average Total Cell Number (no AA (with Wnt3a), BMP1): 18849; Sox17 Expression, % of positive control (no AA (with Wnt3a), BMP1): 6.59%; Sox17 Expression, Average Total Intensity (no AA (with Wnt3a), BMP1): 1.29E+07; Cell Number, % of positive control (no AA (with Wnt3a), BMP2): 181.38%; Cell Number, Average Total Cell Number (no AA (with Wnt3a), BMP2): 16218; Sox17 Expression, % of positive control (no AA (with Wnt3a), BMP2): 4.55%; Sox17 Expression, Average Total Intensity (no AA (with Wnt3a), BMP2): 8.89E+06; Cell Number, % of positive control (no AA (with Wnt3a), BMP2/7): 134.67%; Cell Number, Average Total Cell Number (no AA (with Wnt3a), BMP2/7): 12042; Sox17 Expression, % of positive control (no AA (with Wnt3a), BMP2/7): 3.62%; Sox17 Expression, Average Total Intensity (no AA (with Wnt3a), BMP2/7): 7.08E+06; Cell Number, % of positive control (no AA (with Wnt3a), BMP4): 187.31%; Cell Number, Average Total Cell Number (no AA (with Wnt3a), BMP4): 16748; Sox17 Expression, % of positive control (no AA (with Wnt3a), BMP4): 4.59%; Sox17 Expression, Average Total Intensity (no AA (with Wnt3a), BMP4): 8.97E+06; Cell Number, % of positive control (no AA (with Wnt3a), BMP7): 224.91%; Cell Number, Average Total Cell Number (no AA (with Wnt3a), BMP7): 20111; Sox17 Expression, % of positive control (no AA (with Wnt3a), BMP7): 4.12%; Sox17 Expression, Average Total Intensity (no AA (with Wnt3a), BMP7): 8.05E+06; Cell Number, % of positive control (no AA (with Wnt3a), Butyrate): 159.24%; Cell Number, Average Total Cell Number (no AA (with Wnt3a), Butyrate): 14238; Sox17 Expression, % of positive control (no AA (with Wnt3a), Butyrate): −0.94%; Sox17 Expression, Average Total Intensity (no AA (with Wnt3a), Butyrate): −1.85E+06; Cell Number, % of positive control (no AA (with Wnt3a), EGF): 216.23%; Cell Number, Average Total Cell Number (no AA (with Wnt3a), EGF): 19334; Sox17 Expression, % of positive control (no AA (with Wnt3a), EGF): 33.86%; Sox17 Expression, Average Total Intensity (no AA (with Wnt3a), EGF): 6.62E+07; Cell Number, % of positive control (no AA (with Wnt3a), FGF4): 49.32%; Cell Number, Average Total Cell Number (no AA (with Wnt3a), FGF4): 4410; Sox17 Expression, % of positive control (no AA (with Wnt3a), FGF4): 17.04%; Sox17 Expression, Average Total Intensity (no AA (with Wnt3a), FGF4): 3.33E+07; Cell Number, % of positive control (no AA (with Wnt3a), LY294002): 205.49%; Cell Number, Average Total Cell Number (no AA (with Wnt3a), LY294002): 18374; Sox17 Expression, % of positive control (no AA (with Wnt3a), LY294002): 5.28%; Sox17 Expression, Average Total Intensity (no AA (with Wnt3a), LY294002): 1.03E+07; Cell Number, % of positive control (no AA (with Wnt3a), Muscimol): 211.00%; Cell Number, Average Total Cell Number (no AA (with Wnt3a), Muscimol): 18867; Sox17 Expression, % of positive control (no AA (with Wnt3a), Muscimol): 13.35%; Sox17 Expression, Average Total Intensity (no AA (with Wnt3a), Muscimol): 2.61E+07; Cell Number, % of positive control (no AA (with Wnt3a), PD98059): 211.11%; Cell Number, Average Total Cell Number (no AA (with Wnt3a), PD98059): 18877; Sox17 Expression, % of positive control (no AA (with Wnt3a), PD98059): 6.64%; Sox17 Expression, Average Total Intensity (no AA (with Wnt3a), PD98059): 1.30E+07; Cell Number, % of positive control (no AA (with Wnt3a), PDGF-A): 188.84%; Cell Number, Average Total Cell Number (no AA (with Wnt3a), PDGF-A): 16885; Sox17 Expression, % of positive control (no AA (with Wnt3a), PDGF-A): 22.94%; Sox17 Expression, Average Total Intensity (no AA (with Wnt3a), PDGF-A): 4.48E+07; Cell Number, % of positive control (no AA (with Wnt3a), PDGF-AB): 186.34%; Cell Number, Average Total Cell Number (no AA (with Wnt3a), PDGF-AB): 16662; Sox17 Expression, % of positive control (no AA (with Wnt3a), PDGF-AB): 25.33%; Sox17 Expression, Average Total Intensity (no AA (with Wnt3a), PDGF-AB): 4.95E+07; Cell Number, % of positive control (no AA (with Wnt3a), PDGF-B): 158.46%; Cell Number, Average Total Cell Number (no AA (with Wnt3a), PDGF-B): 14168; Sox17 Expression, % of positive control (no AA (with Wnt3a), PDGF-B): 7.76%; Sox17 Expression, Average Total Intensity (no AA (with Wnt3a), PDGF-B): 1.52E+07; Cell Number, % of positive control (no AA (with Wnt3a), PDGF-C): 186.12%; Cell Number, Average Total Cell Number (no AA (with Wnt3a), PDGF-C): 16642; Sox17 Expression, % of positive control (no AA (with Wnt3a), PDGF-C): 9.46%; Sox17 Expression, Average Total Intensity (no AA (with Wnt3a), PDGF-C): 1.85E+07; Cell Number, % of positive control (no AA (with Wnt3a), PDGF-D): 197.03%; Cell Number, Average Total Cell Number (no AA (with Wnt3a), PDGF-D): 17618; Sox17 Expression, % of positive control (no AA (with Wnt3a), PDGF-D): 9.41%; Sox17 Expression, Average Total Intensity (no AA (with Wnt3a), PDGF-D): 1.84E+07; Cell Number, % of positive control (no AA (with Wnt3a), U0124): 184.97%; Cell Number, Average Total Cell Number (no AA (with Wnt3a), U0124): 16539; Sox17 Expression, % of positive control (no AA (with Wnt3a), U0124): 3.86%; Sox17 Expression, Average Total Intensity (no AA (with Wnt3a), U0124): 7.54E+06; Cell Number, % of positive control (no AA (with Wnt3a), U0126): 223.24%; Cell Number, Average Total Cell Number (no AA (with Wnt3a), U0126): 19961; Sox17 Expression, % of positive control (no AA (with Wnt3a), U0126): −0.29%; Sox17 Expression, Average Total Intensity (no AA (with Wnt3a), U0126): −5.75E+05; Cell Number, % of positive control (no AA (with Wnt3a), VEGF): 204.25%; Cell Number, Average Total Cell Number (no AA (with Wnt3a), VEGF): 18263; Sox17 Expression, % of positive control (no AA (with Wnt3a), VEGF): 17.98%; Sox17 Expression, Average Total Intensity (no AA (with Wnt3a), VEGF): 3.51E+07; Cell Number, % of positive control [7]: 215.98%; Cell Number, Average Total Cell Number [7]: 19312; Sox17 Expression, % of positive control [7]: 1.00%; Sox17 Expression, Average Total Intensity [7]: 1.95E+06; Cell Number, % of positive control (no AA (with Wut3a), BMP6): 199.50%; Cell Number, Average Total Cell Number (no AA (with Wut3a), BMP6): 17838; Sox17 Expression, % of positive control (no AA (with Wut3a), BMP6): 3.75%; Sox17 Expression, Average Total Intensity (no AA (with Wut3a), BMP6): 7.32E+06
